Consider 1 compound from patent US20080152640A1, “Means and Methods For Treating a Disease Which is Associated With an Excess Transport of Hyaluronan Across a Lipid Bilayer” (priority 2003, published 2008).

pIC50: −log10 of the molar value. Like-named read-outs stand apart in the source and are kept apart here. A value given as a limit tells only on which side of the number the result lay.

One experiment concerns human skin fibroblasts. Nature of the experiment: Proliferation of human skin fibroblasts (cell counting). In kind it is cell-based. To be noted: Homo sapiens, Skin fibroblast, read-out: Proliferation (IC50). Here is the method: Human fibroblasts were grown in […] in Dulbecco's modified Eagles medium supplemented with streptomycin/penicillin (100 units of each/ml), kanamycin (100 units/ml) and 10% foetal calf serum. Cell proliferation was determined by cell counting after trypsinisation three days after seeding.

The subject of experiment [1] is human fibroblasts. Nature of the experiment: Hyaluronan production of human fibroblasts (ELISA of culture medium). In kind it is cell-based. To be noted: Homo sapiens, Fibroblast, read-out: HA production (IC50).
Experiment [2] has as its system human fibroblasts. The experiment in a line: Export of fluorescent hyaluronan oligosaccharides from the cytosol of human fibroblasts. It counts as cell-based. The procedure: The media were withdrawn and the cells were incubated at 37° C. with DMEM/water (3:2, v/v) for 2 min. The cells were subjected twice to this incubation sequence and then grown further in DMEM. […] Fluorescent high molecular weight hyaluronan and fluorescent oligosaccharides were introduced into the cytosol by osmotic lysis of pinocytotic vesicles. The kinetics of export was measured in a fluorescent ELISA reader in the presence and absence of the hyaluronan transport inhibitor benzbromaron.

The target in the next experiment is MRP5 (Homo sapiens, UniProt O15440). To be noted: cited from earlier work.
The target of another experiment is MDR1 (Homo sapiens, UniProt P08183). To be noted: cited from earlier work.
A further experiment has as its target T1, MRP4 (Homo sapiens, UniProt O15439).
T1 sequence (O15439 1-1325): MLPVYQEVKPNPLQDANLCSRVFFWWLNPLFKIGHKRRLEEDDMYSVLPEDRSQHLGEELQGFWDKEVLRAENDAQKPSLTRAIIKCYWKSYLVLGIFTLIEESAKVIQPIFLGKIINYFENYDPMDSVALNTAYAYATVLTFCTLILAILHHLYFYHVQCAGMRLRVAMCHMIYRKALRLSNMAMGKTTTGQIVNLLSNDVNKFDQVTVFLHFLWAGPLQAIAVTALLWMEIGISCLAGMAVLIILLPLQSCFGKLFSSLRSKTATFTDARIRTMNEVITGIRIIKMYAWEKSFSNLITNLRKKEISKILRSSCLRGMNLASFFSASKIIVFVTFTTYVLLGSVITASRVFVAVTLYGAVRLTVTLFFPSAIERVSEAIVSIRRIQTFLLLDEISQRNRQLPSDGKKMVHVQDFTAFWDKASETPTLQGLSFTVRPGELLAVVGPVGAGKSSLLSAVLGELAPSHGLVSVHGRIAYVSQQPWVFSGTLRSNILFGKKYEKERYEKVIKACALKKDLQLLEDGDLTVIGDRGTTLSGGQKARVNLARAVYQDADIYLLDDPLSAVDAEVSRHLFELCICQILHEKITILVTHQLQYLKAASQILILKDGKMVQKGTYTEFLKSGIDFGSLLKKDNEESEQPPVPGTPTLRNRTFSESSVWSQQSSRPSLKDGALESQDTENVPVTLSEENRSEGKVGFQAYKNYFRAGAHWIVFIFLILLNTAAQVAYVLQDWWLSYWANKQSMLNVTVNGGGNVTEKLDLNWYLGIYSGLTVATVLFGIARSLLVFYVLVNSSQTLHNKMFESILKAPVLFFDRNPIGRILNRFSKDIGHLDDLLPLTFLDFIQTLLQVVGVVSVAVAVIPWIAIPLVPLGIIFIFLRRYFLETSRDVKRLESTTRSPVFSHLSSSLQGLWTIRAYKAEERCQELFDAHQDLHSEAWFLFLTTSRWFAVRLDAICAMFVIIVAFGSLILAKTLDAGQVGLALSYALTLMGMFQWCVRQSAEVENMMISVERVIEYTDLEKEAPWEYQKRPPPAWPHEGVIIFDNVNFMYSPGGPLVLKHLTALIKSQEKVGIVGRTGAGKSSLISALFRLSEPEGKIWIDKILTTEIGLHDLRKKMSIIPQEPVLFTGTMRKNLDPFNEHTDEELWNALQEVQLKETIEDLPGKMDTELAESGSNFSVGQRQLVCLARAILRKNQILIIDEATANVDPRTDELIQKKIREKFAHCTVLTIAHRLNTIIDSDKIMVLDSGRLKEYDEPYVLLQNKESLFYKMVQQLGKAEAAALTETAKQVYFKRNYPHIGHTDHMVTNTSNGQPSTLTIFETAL
To be noted: cited from earlier work.

For the next experiment, the system named is hyaluronan transport. Nature of the experiment: Inhibition of hyaluronan transport (export) from human fibroblasts, discussion of Example 9. To be noted: for inhibition of hyaluronan transport (words): human fibroblasts.

Sequence of MRP5 (O15440 whole entry): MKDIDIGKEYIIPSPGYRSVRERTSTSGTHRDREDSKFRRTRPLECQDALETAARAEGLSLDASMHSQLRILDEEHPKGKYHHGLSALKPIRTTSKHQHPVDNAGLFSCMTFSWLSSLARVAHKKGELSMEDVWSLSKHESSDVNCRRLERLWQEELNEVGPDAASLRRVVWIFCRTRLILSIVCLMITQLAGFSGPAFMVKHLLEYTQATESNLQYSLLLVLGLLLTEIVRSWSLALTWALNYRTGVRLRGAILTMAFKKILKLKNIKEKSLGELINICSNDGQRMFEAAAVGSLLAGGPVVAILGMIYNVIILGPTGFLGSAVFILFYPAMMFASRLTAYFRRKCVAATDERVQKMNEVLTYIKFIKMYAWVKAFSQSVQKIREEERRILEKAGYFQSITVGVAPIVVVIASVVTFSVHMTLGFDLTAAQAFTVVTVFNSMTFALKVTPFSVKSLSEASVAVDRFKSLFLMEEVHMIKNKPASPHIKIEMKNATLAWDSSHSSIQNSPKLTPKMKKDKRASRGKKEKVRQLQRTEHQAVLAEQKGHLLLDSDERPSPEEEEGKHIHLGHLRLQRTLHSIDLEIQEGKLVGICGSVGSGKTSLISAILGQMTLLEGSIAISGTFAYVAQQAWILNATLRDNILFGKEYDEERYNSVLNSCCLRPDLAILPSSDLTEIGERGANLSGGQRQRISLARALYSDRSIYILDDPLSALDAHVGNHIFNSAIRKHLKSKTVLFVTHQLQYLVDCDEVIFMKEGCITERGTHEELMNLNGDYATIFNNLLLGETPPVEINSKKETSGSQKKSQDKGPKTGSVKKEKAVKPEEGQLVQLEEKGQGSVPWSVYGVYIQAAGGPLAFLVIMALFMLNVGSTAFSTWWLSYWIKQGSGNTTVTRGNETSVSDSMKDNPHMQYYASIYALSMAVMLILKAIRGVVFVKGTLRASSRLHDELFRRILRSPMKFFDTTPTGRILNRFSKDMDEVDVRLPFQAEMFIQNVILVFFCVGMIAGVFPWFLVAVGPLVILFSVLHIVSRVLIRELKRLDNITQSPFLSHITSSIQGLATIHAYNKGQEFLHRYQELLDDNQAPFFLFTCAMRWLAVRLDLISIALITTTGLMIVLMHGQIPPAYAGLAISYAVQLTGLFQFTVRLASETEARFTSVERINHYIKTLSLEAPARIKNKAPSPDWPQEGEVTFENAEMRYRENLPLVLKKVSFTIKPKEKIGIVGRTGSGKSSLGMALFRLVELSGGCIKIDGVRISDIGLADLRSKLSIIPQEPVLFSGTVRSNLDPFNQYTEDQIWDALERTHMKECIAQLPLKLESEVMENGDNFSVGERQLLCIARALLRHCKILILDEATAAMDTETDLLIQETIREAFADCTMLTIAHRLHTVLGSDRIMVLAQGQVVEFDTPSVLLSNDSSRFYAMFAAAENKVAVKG
Sequence of MDR1 (P08183 whole entry): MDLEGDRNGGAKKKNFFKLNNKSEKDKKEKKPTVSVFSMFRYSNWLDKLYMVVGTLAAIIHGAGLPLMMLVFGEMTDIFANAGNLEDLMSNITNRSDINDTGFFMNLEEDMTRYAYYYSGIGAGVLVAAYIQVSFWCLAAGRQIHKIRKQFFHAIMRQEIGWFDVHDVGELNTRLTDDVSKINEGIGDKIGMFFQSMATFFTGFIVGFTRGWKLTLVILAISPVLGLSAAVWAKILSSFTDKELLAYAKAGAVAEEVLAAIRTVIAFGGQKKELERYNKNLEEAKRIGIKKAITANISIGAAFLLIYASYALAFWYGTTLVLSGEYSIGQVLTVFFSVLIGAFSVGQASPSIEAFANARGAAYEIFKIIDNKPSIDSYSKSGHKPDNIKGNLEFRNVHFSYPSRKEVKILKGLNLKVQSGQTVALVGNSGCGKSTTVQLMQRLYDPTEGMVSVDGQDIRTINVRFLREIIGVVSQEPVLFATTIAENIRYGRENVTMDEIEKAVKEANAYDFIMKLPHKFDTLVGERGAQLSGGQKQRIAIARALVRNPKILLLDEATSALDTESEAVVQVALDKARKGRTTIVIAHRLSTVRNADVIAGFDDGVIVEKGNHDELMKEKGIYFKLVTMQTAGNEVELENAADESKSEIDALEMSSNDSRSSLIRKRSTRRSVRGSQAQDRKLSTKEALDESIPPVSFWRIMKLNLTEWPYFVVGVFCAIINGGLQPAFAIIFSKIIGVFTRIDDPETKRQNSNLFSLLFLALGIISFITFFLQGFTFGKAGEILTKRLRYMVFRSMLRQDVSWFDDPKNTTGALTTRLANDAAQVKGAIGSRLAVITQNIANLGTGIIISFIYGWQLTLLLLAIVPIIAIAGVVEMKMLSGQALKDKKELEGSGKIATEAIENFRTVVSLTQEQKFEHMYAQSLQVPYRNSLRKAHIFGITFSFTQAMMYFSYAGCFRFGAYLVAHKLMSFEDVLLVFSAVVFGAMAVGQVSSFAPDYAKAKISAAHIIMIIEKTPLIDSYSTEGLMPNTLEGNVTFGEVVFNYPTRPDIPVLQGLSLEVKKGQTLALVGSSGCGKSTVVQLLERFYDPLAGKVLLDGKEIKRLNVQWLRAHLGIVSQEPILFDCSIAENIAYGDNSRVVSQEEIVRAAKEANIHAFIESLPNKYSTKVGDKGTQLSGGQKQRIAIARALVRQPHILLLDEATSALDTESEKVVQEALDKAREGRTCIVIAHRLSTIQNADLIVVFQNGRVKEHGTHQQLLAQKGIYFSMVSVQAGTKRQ
Protocol for hyaluronan transport: Cells from five culture flasks (180 cm2 growth area) were washed with cold phosphate buffered saline (PBS), harvested with the aid of a rubber policeman, sedimented at 1500 g for 5 min and suspended in 30 ml of ice-cold PBS. The cells were transferred into a Parr-cell disruption bomb, exposed to a nitrogen pressure of 900 psi for 15 min and disrupted by nitrogen cavitation [18] and the particulate fraction was obtained by centrifugation at 40000 g for 20 min. […] Hyaluronan synthesis was stopped by adding a solution of 10% sodium dodecylsuifate (SDS) to a final concentration of 1%. The mixtures were applied to descending paper chromatography that was developed with ethanol/aq. 1 M ammonium acetate pH 5.5 (13:7) as solvent. After 18 h the radioactivity of [14C]hyaluronan at the origin was determined.
Trypsinised fibroblasts were suspended in Dulbecco's medium at 10^5 cells/ml and 100 μl aliquots were transferred to a 96 well microtiter plate. The first row received 200 μl of the suspension and 20 μl of the multidrug resistance inhibitors dissolved in DMSO at concentrations of 4 mM. A serial dilution to the inhibitors was established by transfer of 100 μl aliquots from the first row to the following rows. All experiments were performed in duplicates. […] The cells were incubated for 2 days at 37° C. and aliquots (5 and 20 μl) of the culture medium were used for measurement of the hyaluronan concentration in the cell culture medium by an ELISA [19]. […] The mixtures were transferred to the hyaluronan-coated test plate and incubated for 1 hour at 37° C. The microtiter plate was washed three times with buffer A and incubated with 100 μl/well of a solution of streptavidin-horseraddish-peroxidase (Amersham) at a dilution of 1:100 in phosphate buffered saline, 0.1% Tween-20 for 30 min at room temperature. The plate was washed five times with buffer A and the colour was developed by incubation with a 100 μl/well of a solution of 5 mg o-phenylenediamine and 5 μl 30% H2O2 in 10 ml of 0.1 M citrate-phosphate buffer pH 5.3 for 25 min at room temperature. The adsorption was read at 490 nm. The concentrations in the samples were calculated from a logarithmic regression curve of the hyaluronan standard solutions.
Three parameters were measured: 1. The amount of hyaluronan produced during growth into the culture supernatant. 2. The hyaluronan synthase activity in particulate membrane fractions to eliminate the possibility that inhibition of hyaluronan production in cell culture could be caused indirectly by cellular mediators. 3. The effect on cell proliferation, because hyaluronan synthesis is also required for detachment during mitosis and growth of the human HT1080 cell line [14].

On to `CCc1oc2ccccc2c1C(=O)c1cc(Br)c(O)c(Br)c1` [Benzbromarone], for which the pIC50 in the experiment with human skin fibroblasts is 4.12; in the experiment on human fibroblasts [1], 4.52; in the experiment with hyaluronan synthase (read-out: HA synthase activity (IC50), membranes of human fibroblasts), 4.92; on MRP5 (read-out: IC50 for MRP5), 3.82; at MRP5 (substrate PMEA, read-out: IC50, PMEA transport by MRP5) it was 3.82; on MRP5 (substrate S-(2,4-dinitrophenyl)glutathione, read-out: IC50, MRP5 mediated transport of S-(2,4-dinitrophenyl)glutathione), above 5.30. For the same compound, the pIC50 on MDR1 was below 3.10; at MRP4 (read-out: IC50, 9-(2-phosphonomethoxyethyl)adenine (PMEA) transport by MRP4, substrate PMEA), 3.82; on MRP4 (read-out: IC50 for MRP4), 3.82; at MRP4 (read-out: published inhibitory concentrations IC50 or Ki, MRP4), 3.82; in the experiment with hyaluronan transport (Homo sapiens, Fibroblast, read-out: IC50 for hyaluronan transport (export)), 4.60. In addition, the “export of fluorescent hyaluronan oligosaccharides from the cytosol” value with human fibroblasts [2] was “inhibits the export”. For the same compound, the “hyaluronan transport / synthase activity in membranes” value in the experiment with hyaluronan synthase (membranes from human fibroblasts) is recorded as “almost completely inhibited”. Also, the results for the “inhibition of hyaluronan transport (words)” value with hyaluronan transport and with hyaluronan transport (listed as benzbromarone) were “very effective inhibitor” and “inhibited hyaluronan transport”, respectively.
